From ChEMBL document CHEMBL3507680, “University of Dundee, Gates Library screen for HepG2 cell viability” come the findings set out here.

SMILES strings stand for the structures.

This data set in a line: Human HepG2 cell viability assay in 384 well format. Further details: dose 125 nL, time 70.5 hour; concentration not given beside the values. Conditions: HepG2 cells, read-out: Inhibition. In kind it is toxicity, cell-based.
Take `CCn1nccc1CNC(=O)NC1CCCCC1`: the cytotoxicity at 70.5 h stood at 6.27%. In the case of `Cc1cc(=O)n(CC(=O)NCC2CCCO2)c(-c2cccc(Cl)c2)n1` (centres undefined), the cytotoxicity at 70.5 h was -2.89%. The value for `Cc1cc(=O)n(CC(=O)NCCC(C)C)c(-c2cccc(Cl)c2)n1` was -1.79%. The value for `CN1CCCCC(C2CCN(S(=O)(=O)c3cn(C)cn3)CC2)C1=O` (centres undefined) was 0.674%; that for `O=C(c1ccnc(C2CCNCC2)c1)N1CCCC(CO)C1` (centres undefined) was -2.32%; that for `O=C1CCOC[C@]2(CN(Cc3ccccc3)C[C@H]2c2cccnc2)N1` was 15.4%. The value for `CC(C)N1CCOC(c2ccnc(N(C)C)n2)C1` (centres undefined) was -3.86%; that for `COCC(=O)NC(Cc1cc(N(C)C)nc(C2CC2)n1)c1ccccc1` (centres undefined) was -2.08%.

With `Cc1ccc(OCCCNC(=O)C2(C)CC(=O)N3C=CC=CC3=N2)cc1` (centres undefined), the cytotoxicity at 70.5 h is -3.61%. For `NC(=O)CN1CCC(c2csc(Nc3cnccn3)n2)CC1`, the cytotoxicity at 70.5 h was -4.74%. Regarding `COCC(=O)NCc1ccc(-c2ccccc2C(=O)O)cn1`, the cytotoxicity at 70.5 h was -3.58%. The value for `FC(F)(F)c1cc(C2CCCN(c3ncccn3)C2)n2ccnc2n1` (centres undefined) was -2.5%. As for `Cc1cc(C)nc(Nc2nccnc2C2CCCN(CCO)C2)n1` (centres undefined), the cytotoxicity at 70.5 h was -3.54%.

For `Cc1ccccc1OC1CCN(CC(=O)Nc2c(C)nn(C)c2C)CC1`, the cytotoxicity at 70.5 h was found to be 1.35%. The value for `Cc1nc(CCC(N)=O)cc(C2CCCN2S(C)(=O)=O)n1` (centres undefined) was 0.687%; that for `O=C(c1cc2cccc(F)c2[nH]1)N1C[C@@H](O)[C@H](N2CCOCC2)C1` was -5.87%; that for `COCCNC(=O)CN1CC=C(n2c(C)nc(=O)c3ccccc32)CC1` was 0.895%. The value for `O=C(c1ccc2c(c1)CCCC2)N1CCn2ncnc2C1` was 2.9%.

In the case of `Cc1nn(C)c(C)c1-c1cnc(CC2CCNC2)cn1` (centres undefined), the cytotoxicity at 70.5 h is -4.3%. The value for `Cc1cc(C)nc(Nc2nccnc2C2CCCN(C(C)C)C2)n1` (centres undefined) was 1.6%. The value for `CNc1cncc(C2CCN(C(=O)c3cnco3)CC2)n1` was 9.47%. The figure for `CCc1cc(C(=O)N2CCCC(c3cc(=O)nc4n3CCC4)C2)no1` (centres undefined) is -6.36%; for `Cc1cc(C)n(CCNCc2cc(-c3ccc(Cl)cc3)c[nH]c2=O)n1` it is -3.88%. Consider `Cc1ccc(-c2cc(N)c(=O)n(C(C)C(=O)NC(C)C)n2)o1` (centres undefined), for which the cytotoxicity at 70.5 h was -11.9%. The value for `Cc1cc2c(cc1C)OC1(C=C2)CCN(CC(=O)N2CCOCC2)CC1` was -8.77%; that for `Cc1sc(C(=O)NC(C)C)cc1S(=O)(=O)N(C)C` was -5.26%; that for `COCCNC(=O)Cn1c(-c2ccco2)cc2cccnc21` was -8.41%. The figure for `COCCNC(=O)C(C)n1nc(-c2ccco2)cc(N)c1=O` (centres undefined) is 23.7%; for `COCCCNC(=O)C(C)n1nc(-c2ccco2)cc(N)c1=O` (centres undefined) it is -6.27%; for `Cc1nc(Nc2cnccn2)cc(C2CCCN2)n1` (centres undefined) it is 19.5%. `COC(C)(C)C(=O)N1CCC(c2cc(CN(C)C)n(C)n2)CC1`: the cytotoxicity at 70.5 h is -10.8%. The value for `CN1CCCC(c2ccc(N3CCOCC3)cn2)C1` (centres undefined) was -3.9%. The figure for `Cc1cc(C)n(CCCn2cncc2-c2ccc3c(c2)CC(C)N3C)n1` (centres undefined) is 2%; for `Cc1nn(C)c(C)c1CCn1cncc1-c1ccc2c(c1)CC(C)N2C` (centres undefined) it is 4.43%. The figure for `CCN1c2ccc(-c3cncn3CCCn3ccnc3C)cc2CC1C` (centres undefined) is -0.494%. For the molecule `c1cc(CNc2cnc(C3CCCN3)cn2)ccn1` (centres undefined), the cytotoxicity at 70.5 h was -1.63%. The figure for `CN(CC(=O)NC(Cc1ccsc1)c1cccnc1)Cc1ccccn1` (centres undefined) is 31.3%; for `Cc1c(CN2CCc3nc4sccc4c(=O)n3CC2)cnn1C` it is -6.65%. `CC(C)NC(=O)C1(CC2CC(c3ccc(F)cc3)=NO2)CCNCC1` (centres undefined): the cytotoxicity at 70.5 h was 24.3%.
